# Results published in paper PMC12758200, “Inhibition of lysosomal LAMTOR1 increases autophagy by suppressing the MTORC1 pathway to ameliorate lipid accumulations in MAFLD” (Autophagy, 2025).
# How the values were obtained:
# LAMTOR1 = target: T1, LAMTOR1 (Mus musculus, UniProt Q9CQ22, L22A); test: DARTS in lysate of transfected HEK293 cells, […] ACA; assay type: cell-based
# T1 construct: MYC-LAMTOR1^L22A
# [1] = target: LAMTOR1 (late endosomal/lysosomal adaptor, MAPK and MTOR activator 1) (Mus musculus, UniProt Q9CQ22); test: dose-dependent DARTS western blot in 3T3-L1 lysate; CETSA and isothermal dose-response CETSA; assay type: biochemical
# LAMTOR1 (late endosomal/lysosomal adaptor, MAPK and MTOR activator 1), sequence (Q9CQ22 2-161): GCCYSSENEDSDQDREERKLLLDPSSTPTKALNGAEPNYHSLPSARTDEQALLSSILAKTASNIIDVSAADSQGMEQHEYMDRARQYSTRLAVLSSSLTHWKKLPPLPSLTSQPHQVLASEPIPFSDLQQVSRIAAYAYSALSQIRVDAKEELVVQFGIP
# T1 sequence (Q9CQ22 2-161 L22A): as the sequence (Q9CQ22 2-161) above, with L21A counted along it
structure (smiles),measurement,setting,value
"COc1ccc(-c2cc(=O)c3c(O)cc(O)cc3o2)cc1 [ACA, 5,7-dihydroxy-4’methoxyflavone]",% increase in stability,LAMTOR1,35.7 % increase in stability
same,EC50,[1],~44 µM
